US5457106A, “Pyridine derivatives, their production and use” (Takeda Chemical Industries, Ltd., priority 1991, dated 1995)
Read-outs that look alike come from different tables or passages of the source.

Tests used:
[1] = tested on: acute renal failure induced by renal ischemia followed by reperfusion in rats; test: Effect on acute renal failure induced by renal ischemia-reperfusion; assay type: in vivo, rat (Sprague-Dawley); conditions: 50 mg/kg, orally, 20 hours of reperfusion
Protocol: Effect On Acute Renal Failure Induced By Renal Ischemia-Reperfusion Male Sprague-Dawley rats (6 to 7 weeks old) were anesthetized using pentobarbital sodium (50 mg/kg, i.p.) and bilateral renal arteries were completely occluded for 45 minutes followed by reperfusion. After 20 hours of the reperfusion, the blood was collected from the abdominal aorta under anesthesia and the blood urea nitrogen (BUN) was determined.

ICAM-1 = test: Adhesion protein expression inhibitory activity, ICAM-1; assay type: cell-based; conditions: human umbilical vascular endothelial cells, TNF-α, 360 min
Summary of the method: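 HUVECs pre-incubated with test compounds 15 minutes at 37° C., then stimulated with TNF-α at 1 ng/ml final for 3 hours (ELAM-1) or 6 hours (ICAM-1). Surface expression measured on glutaraldehyde-fixed cells by cell-ELISA using anti-ELAM-1 BBA-2 or anti-ICAM-1 BBA4 and HRP-labelled anti-mouse IgG.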

[2] = tested on: ART (antigen-responding T-cell); test: In vitro ART (antigen-responding T-cell) proliferation test; assay type: cell-based, Lewis rat; conditions: Rattus norvegicus, T-cell, read-out: % Inhibition of ART growth
Rat adjuvant arthritis = test: Activity to rat adjuvant arthritis; assay type: in vivo, rat (SD or Lewis); conditions: 50 mg/kg, day 0 to day 13
[3] = tested on: Mouse phenylquinone writhing; test: Mouse phenylquinone writhing inhibitory activity; assay type: in vivo, mouse (Slc: ICR); conditions: Mus musculus, po, 20 min, 50 mg/kg, orally; read-out: Inhibitory percentage (phenylquinone writhing)
Summary of the method: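 Male ICR mice (4 weeks, 17–24 g) dosed orally with compound suspended in 5% gum arabic. After 30 min, 0.02% phenylquinone (0.1 ml/10 g) given i.p.; writhing and stretching responses counted over 20 min.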

cyclooxygenase = target: T1, cyclooxygenase (Rattus norvegicus, UniProt Q63921); test: Cyclooxygenase inhibitory activity (HHT formation from arachidonic acid in rat platelet-rich plasma); assay type: cell-based, rat (Jcl:wistar)
T1 construct: from tissue; host or cells: platelets in platelet-rich plasma from rat abdominal aorta blood (Jcl:wistar, male)
T1 sequence (Q63921 27-602): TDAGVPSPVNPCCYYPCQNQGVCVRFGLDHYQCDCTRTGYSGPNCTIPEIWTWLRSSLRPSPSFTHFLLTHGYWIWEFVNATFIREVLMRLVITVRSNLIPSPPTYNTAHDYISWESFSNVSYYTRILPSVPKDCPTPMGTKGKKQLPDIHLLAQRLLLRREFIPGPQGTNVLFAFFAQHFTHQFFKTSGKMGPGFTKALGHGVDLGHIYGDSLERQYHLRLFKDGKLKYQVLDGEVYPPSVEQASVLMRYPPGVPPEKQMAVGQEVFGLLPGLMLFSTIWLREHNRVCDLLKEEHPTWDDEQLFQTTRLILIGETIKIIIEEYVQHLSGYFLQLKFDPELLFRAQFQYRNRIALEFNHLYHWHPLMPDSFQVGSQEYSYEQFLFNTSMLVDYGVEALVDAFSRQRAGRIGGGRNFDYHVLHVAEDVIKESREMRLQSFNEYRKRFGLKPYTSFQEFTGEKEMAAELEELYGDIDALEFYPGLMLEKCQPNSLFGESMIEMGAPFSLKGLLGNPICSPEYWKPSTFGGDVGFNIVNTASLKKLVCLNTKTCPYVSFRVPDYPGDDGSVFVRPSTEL

[4] = tested on: brewer's yeast induced pyrexia; test: Antipyretic activity (brewer's yeast induced pyrexia); assay type: in vivo, rat (DS line); conditions: 50 mg/kg, orally
Summary of the method: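 Male DS rats (7 weeks, 200-240 g) made febrile by s.c. 15% brewer's yeast 18 h before dosing; only animals at ≥38.5° C used. Compound given orally versus solvent control, with rectal temperature taken by thermistor hourly for 5 h post-dose.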

5-Lipoxygenase = target: T2, 5-Lipoxygenase (Rattus norvegicus, UniProt P12527); test: 5-Lipoxygenase inhibitory activity in rat basophilic leukemia cells; assay type: cell-based
T2 construct: rat basophilic leukemia cell suspension; endogenous in cells
T2 sequence (P12527 1-673): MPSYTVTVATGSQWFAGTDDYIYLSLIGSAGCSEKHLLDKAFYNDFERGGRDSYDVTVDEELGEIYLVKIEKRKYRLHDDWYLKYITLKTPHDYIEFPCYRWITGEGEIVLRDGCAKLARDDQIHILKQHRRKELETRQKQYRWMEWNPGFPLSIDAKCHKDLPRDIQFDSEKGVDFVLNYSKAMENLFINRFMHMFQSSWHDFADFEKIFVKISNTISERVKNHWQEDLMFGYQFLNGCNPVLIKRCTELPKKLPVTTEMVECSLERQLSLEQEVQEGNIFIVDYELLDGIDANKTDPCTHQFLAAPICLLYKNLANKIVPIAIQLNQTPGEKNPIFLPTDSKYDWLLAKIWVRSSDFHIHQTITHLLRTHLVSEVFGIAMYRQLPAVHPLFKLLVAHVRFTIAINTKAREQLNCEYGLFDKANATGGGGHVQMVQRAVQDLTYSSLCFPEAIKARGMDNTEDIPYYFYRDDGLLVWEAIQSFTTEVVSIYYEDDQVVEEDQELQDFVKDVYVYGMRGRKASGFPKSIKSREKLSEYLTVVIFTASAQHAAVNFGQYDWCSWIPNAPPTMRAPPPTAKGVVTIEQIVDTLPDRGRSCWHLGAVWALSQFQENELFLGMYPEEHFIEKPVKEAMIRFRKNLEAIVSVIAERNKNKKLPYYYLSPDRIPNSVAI
Protocol: 5-Lipoxygenase Inhibitory Activity […] Then, 0.1 ml of mast cell medium containing 50 μg of arachidonic acid and 1 μg of calcium ionophore (A-23187) were added and the mixture was allowed to stand at 37° C. for 15 minutes. Ethanol (1 ml) was added thereto and the mixture was shaken well, and filtered (Membrane filter, 0.45 μm). […] As a control, the measurement was carried out according to the same manner except that 0.01 ml of the solvent used for dissolving the test compound was used in place of the test compound. The inhibitory percentage (%) was calculated from the following equation to obtain IC50.

[5] = tested on: Mouse acetic acid writhing; test: Mouse acetic acid writhing inhibitory activity; assay type: in vivo, mouse (Slc: ICR); conditions: Mus musculus, po, 20 min, orally, read-out: Inhibitory percentage (acetic acid writhing)
Summary of the method: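 Male ICR mice, 4 weeks old, 10 per group, dosed orally (suspension in 5% gum arabic). After 30 min, 0.6% acetic acid given i.p. and writhing counted for 20 min. Percent inhibition calculated per animal against mean control response.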

ELAM-1 = test: Adhesion protein expression inhibitory activity, ELAM-1; assay type: cell-based; conditions: 13 μM, human umbilical vascular endothelial cells, TNF-α; 180 min
Protocol: Adhesion Protein Expression Inhibitory Activity The various concentrations of test compounds were added to the human umbilical cord-derived vascular endothelial cells [sold by Klabo] which were seeded in the gelatin coat plate and the mixture was incubated at 37° C. for 15 minutes. Then, the human tumor necrosis factor-α[TNF-α; sold by Genzyme] was added therein to the final concentration of 1 ng/ml and incubation was carried out at 37° C. for 3 hours for expression of ELAM-1 and for 6 hours for that of ICAM-I. After the reaction, the cells were fixed using glutaraldhyde and the expression amount of ELAM-1 and ICAM-1 was measured by the cell-ELISA method. That is, the expression was determined by […] the adhesion proteins on the cells in the system using anti-ELAM-1 antibody BBA-2 and anti-ICAM-1 antibody BBA4 as the first antibody as well as horseradish peroxidase-labeled rabbit anti-mouse IgG antibody as the second antibody.

`Cl.O=C(N(CCCSc1ccncc1)Cc1ccccc1)C(F)(F)F` [Example 73, 4-[3-(N-benzyl-N-trifluoroacetylamino)propylthio]pyridine hydrochloride] was tested, and the Blood urea nitrogen [1] was 68 ± 3 mg/dL, the “Expression Inhibitory Potency, ICAM-1” value (ICAM-1; 30 μM) was 42% and the inhibition at 1 µM [2] was 23%. It also gave an inhibition at 10 µM [2] of 82%, a Swelling inhibitory percentage (Rat adjuvant arthritis) of 52% and an inhibition in vivo at 50 mg/kg [3] of 75%. The IC50 (cyclooxygenase) was 2.8 µM, the “Antipyretic activity, peak time” value [4] was 2 h and the “Antipyretic activity, .increment. °C.” value ([4]; at peak time) was -0.65 °C.
For `O=C1SC(=Cc2ccccc2)C(=O)N1CCCCSc1ccncc1` [Example 150, 4-[4-(5-benzylidene-2,4-thiazolidinedione)butylthio]pyridine], the IC50 (5-Lipoxygenase; 5-HETE, read-out: 5-Lipoxygenase inhibitory activity, 5-HETE IC50) was 2.6 µM, the IC50 (5-Lipoxygenase; LTB4, read-out: 5-Lipoxygenase inhibitory activity, LTB4 IC50) was 2.5 µM and the inhibition in vivo at 50 mg/kg [5] was 54%. For the same compound, the Blood urea nitrogen [1] was 76.8 ± 16.9 mg/dL, the “Expression Inhibitory Potency, ICAM-1” value (ICAM-1; 30 μM) was 94% and the inhibition at 1 µM [2] was -31%. The inhibition at 10 µM [2] was 75%.
With `O=C1SC(=Cc2cccs2)C(=O)N1CCCCSc1ccncc1` [Example 157, 4-[4-[5-(2-thienylmethylene)-2,4-thiazolidinedione]butylthio]pyridine] the Blood urea nitrogen [1] was 62.4 ± 7.0 mg/dL, the “Expression Inhibitory Potency, ICAM-1” value (ICAM-1; 30 μM) was 78% and the inhibition at 1 µM [2] was -50%. It also gave an inhibition at 10 µM [2] of 62%.
With `CCCC=C1SC(=O)N(CCCCSc2ccncc2)C1=O` [Example 171, 4-[4-(5-propylmethylene-2,4-thiazolidinedione)butylthio]pyridine] the Blood urea nitrogen [1] was 64 ± 11 mg/dL, the “Expression Inhibitory Potency, ICAM-1” value (ICAM-1; 13 μM) was 75% and the inhibition at 1 µM [2] was 96%. The inhibition at 10 µM [2] was 41% and the “Expression Inhibitory Potency, ELAM-1” value (ELAM-1) was 94%.
